Measurements: BigSolDB 2.1

N#CNC(=N)N
solubility (mole fraction)
Details	278.15 K	283.15 K	288.15 K	293.15 K	298.15 K	303.15 K	308.15 K	313.15 K	318.15 K	323.15 K
in DMF	0.183	0.19	0.205	0.215	0.225	0.243	0.248	0.256	0.268	0.275
in acetone	0.00744	0.0084	0.00923	0.0101	0.011	0.0118	0.0127	0.0136	0.0144	0.015
in ethanol	0.00374	0.00403	0.00449	0.00493	0.00591	0.00654	0.00738	0.00805	0.00883	0.0097
in ethylene glycol	0.0187	0.0245	0.0289	0.0377	0.048	0.0587	0.0655	0.0805	0.0995	0.12
in methanol	0.0141	0.0162	0.0193	0.021	0.0231	0.0264	0.028	0.0297	0.032	0.0347
in water	0.00303	0.00387	0.00526	0.00707	0.00891	0.0114	0.0141	0.0172	0.021	0.0265
